# Structures can show the parent of a compound that is named as a salt.
# Legend:
# [1] = Particle size distribution, z-potential and pH of aqueous solutions of α-T3DMG with or without TCA; type: physicochemical
# Method: The fitting curves were obtained by the plateau model using GraphPad Prism to indicate a smoothing curve connecting each point. The z-average with PDI and the z-potential of the aqueous solution of α-[…] with or without TCA, as described in Section 4.7.1, were determined using a Zetasizer Nano ZS (MALVERN, Worcestershire, UK). Measurements were independently performed three times for each sample. The pH of the aqueous solution of α-[…] with or without TCA is described in Section 4.7.1. It was measured using a LAQUAtwin pH-11 pocket water quality meter (HORIBA, Ltd., Kyoto, Japan).
# [2] = Plasma α-T3 pharmacokinetics after gastrostomy administration in bile duct-ligated rats; type: in vivo, rat
# Method: The SD rats were fasted for 16 h, and they were provided drinking water ad libitum prior to the administration of the test compounds. The rats were administered three types of mixed anesthetic agents (medetomidine, midazolam, and butorphanol) under isoflurane anesthesia. To avoid the influence of intrinsic bile flow on intestinal absorption, a catheter was inserted into the bile ducts of the rats. The catheter was ligated with strings, and intrinsic bile flow was excluded. This animal model was referred to in an animal experimental book in Japanese, titled in English as, “An atlas of experimental animal technology” published in 1998; this method is very similar to that described in Figure 5 of Jaber et al..
# Dosing solutions were prepared as follows: (i) 5.88 mmol/L α-T3DMG and 5.88 mmol/L TCA in water (α-T3DMG:TCA = 1:1), (ii) 5.88 mmol/L α-T3DMG and 11.76 mmol/L TCA in water (α-T3DMG:TCA = 1:2), and (iii) 5.88 mmol/L α-T3 and 11.76 mmol/L TCA in water (α-T3:TCA = 1:2). The α-T3 was dispersed in silica powder in ethanol, and the solvent was removed in vacuo prior to dispersion in water. The ligated rats were administered […] of α-T3DMG or α-T3 via gastrostomy. The doses were 12.5 mg/kg of body weight equivalent for α-T3.
# Blood samples (200 µL) were collected from the external jugular vein under isoflurane anesthesia using heparinized syringes at 0.5, 1, 2, 3, 4, 6, 8, and 24 h. […]
# [3] = Enzymatic hydrolysis of α-T3 esters in rat plasma; type: in vitro ADME; settings: pH 7.4, 37 °C, Michaelis–Menten fit
# [4] = Enzymatic hydrolysis of α-T3 esters in rat liver microsomes; type: in vitro ADME; settings: rat liver microsome, pH 7.4, 37 °C, Michaelis–Menten fit; for Km: liver microsomes
# Method: The hydrolysis of esters was analyzed at 37 °C in phosphate-buffered saline (PBS) containing commercially available rat liver microsomes (In Vitro Technologies, Inc., Baltimore, MD, USA). The microsomes (20 mg/mL) were adjusted to a protein concentration of 0.11 mg/mL and preincubated at 37 °C for 5 min before adding the esters.
# Stock solutions of the esters were prepared in a 5% methanol aqueous solution. Enzymatic reactions were initiated by adding 50 µL ester stock solution (final concentration 50–800 μmol/L) and 50 μL PBS to 900 µL preheated reaction medium containing rat liver microsomes in amber test tubes. These reactions were incubated at 37 °C; and, at various times, 100 μL aliquots were removed and mixed with 350 µL ethanol. Samples were then vortexed for 2 min and centrifuged at 1750 g for 5 min. The aliquot was analyzed using the LC-MS/MS system described in Section 4.8. The initial hydrolytic rate (μmol/L α-T3 formed per min) was calculated from the initial slope of the plot of α-T3 concentration versus time.
# [5] = Water solubility; type: physicochemical; settings: distilled water, 25 ± 1 °C, shaken 3 h
# Method: The aqueous solubility of each ester was determined by adding 50 μmol of each compound to 1 mL of distilled water in amber test tubes and incubating the tubes at 25 ± 1 °C in a constant-temperature water bath. The test tubes were shaken for 3 h, and the suspensions were filtered using a membrane filter (MF-Millipore™ Membrane Filter, 0.45 µm pore size, Merck KGaA, Darmstadt, Germany). The filtered media, including α-T3DMG, was assayed using the liquid chromatography (LC)-MS/MS method described in Section 4.8.
# [6] = Stability in water; type: physicochemical
# [7] = Toxicity observation in the in vivo study; settings: bile duct-ligated rats, 12.5 mg/kg α-T3 equivalent, gastrostomy
# [8] = Distribution of α-T3DMG to n-octanol and water phases; type: physicochemical; settings: increasing TCA molar ratio
# Method: The fitting curves were obtained by the plateau model using GraphPad Prism to indicate a smoothing curve connecting each point. The prepared solutions described in Section 4.7.1 were combined with the same volume of n-octanol and then vortexed for 2 min. The solutions were then centrifuged at 20,600× g for 20 min. The upper layer (n-octanol) and the lower layer (water) were collected, diluted with ethanol, and subjected to LC-MS/MS, as described in Section 4.7.
# [9] = Effect of eserine (esterase inhibitor) on ester hydrolysis in rat liver microsomes; type: in vitro ADME; settings: eserine 0–2.0 mmol/L
# Method: The effects of eserine on α-T3DMG hydrolysis in rat liver microsomes were also examined using similar methods, with 50 µL eserine aqueous solution instead of PBS, added to the mixtures with liver microsomes. Eserine was tested at 0–2.0 mmol/L.
# [10] = Appearance of aqueous solutions of α-T3DMG with or without TCA; type: physicochemical
# Method: A stock solution of α-T3DMG was prepared in milliQ and combined with different concentrations of taurocholic acid (TCA) aqueous solution to the final molar ratios (α-T3DMG/TCA = 1/0.1–4). The fitting curves were obtained by the plateau model using GraphPad Prism to indicate a smoothing curve connecting each point.
# [11] = 5.88 mmol/L α-T3DMG, TCA molar ratio 0
# [12] = 5.88 mmol/L α-T3DMG, TCA molar ratio 0.3
# [13] = 5.88 mmol/L α-T3DMG, TCA molar ratio 0.9
# [14] = 5.88 mmol/L α-T3DMG, TCA molar ratio 1
# [15] = 5.88 mmol/L α-T3DMG, TCA molar ratio 1.5
# [16] = 5.88 mmol/L α-T3DMG, TCA molar ratio 3
# [17] = 5.88 mmol/L α-T3DMG, TCA molar ratio 4
# [18] = 23.52 mmol/L α-T3DMG, TCA molar ratio 0
# [19] = 23.52 mmol/L α-T3DMG, TCA molar ratio 0.3
# [20] = 23.52 mmol/L α-T3DMG, TCA molar ratio 1.5
# [21] = 23.52 mmol/L α-T3DMG, TCA molar ratio 3
# [22] = 23.52 mmol/L α-T3DMG, TCA molar ratio 4
smiles,measurement,setting,value
"CNCC(=O)Oc1c(C)c(C)c2c(c1C)CC[C@@](C)(CC/C=C(\C)CC/C=C(\C)CCC=C(C)C)O2 (as salt: hydrochloride) [α-T3MG, 2R-α-Tocotrienyl N-methylglycinate]",melting point,,170 to 173 °C
"C[C@H](CCC(=O)NCCS(=O)(=O)O)[C@H]1CC[C@H]2[C@@H]3[C@H](O)C[C@@H]4C[C@H](O)CC[C@]4(C)[C@H]3C[C@H](O)[C@]12C [TCA, taurocholic acid, reference compound]",z-potential,"[1]; TCA without α-T3DMG in water, 23.52 mmol/L",−38.9 ± 1.9 mV
"CC(C)=CCC/C(C)=C/CC/C(C)=C/CC[C@]1(C)CCc2c(C)c(O)c(C)c(C)c2O1 [α-T3, 2R-α-Tocotrienol]",plasma α-T3 levels after postprandial (TCA 1:2) administration of α-T3 compared with fasting (TCA 1:1) administration of α-T3DMG,"[2]; gastrostomy, Supplementary Figure S2",similar
"CC(C)=CCC/C(C)=C/CC/C(C)=C/CC[C@]1(C)CCc2c(C)c(OC(=O)CN(C)C)c(C)c(C)c2O1 [α-T3DMG, 2R-α-Tocotrienyl N,N-dimethylglycinate hydrochloride]",plasma levels of α-T3DMG (ester form) relative to α-T3,[2]; gastrostomy of α-T3DMG with TCA,4–10%
same,Km,[3],664 µM
same,Vmax,[3],8.138e-08 mol/L/min
same,Km,[4],5720 µM
same,Vmax,[4],0.0001395 mol/L/min
same,solubility at 3 h,[5],> 50000 µM
same,degradation in water,[6]; incubated at 5 and 20 °C for 28 days,did not exhibit any degradation
same,stability in water,[6]; room temperature (20 °C) for a month,stable
same,half-life,"[6]; water, accelerated condition at 40 °C",~27 days
same,toxicity or abnormalities in rats and blood samples,[7],no toxicity or abnormalities were observed
same,α-T3DMG levels in the n-octanol phase,[8],reached a plateau at approximately equal molar ratios of α-T3DMG and TCA
same,hydrolysis in the presence of eserine,[9],completely inhibited
same,PDI,[1]; [11],0.542 ± 0.034
same,Z-Average,[1]; [11],282.0 ± 8.9 nm
same,Z-Potential,[1]; [11],95.4 ± 2.5 mV
same,pH,[1]; [11],3.0
same,PDI,[1]; [12],0.428 ± 0.014
same,Z-Average,[1]; [12],12.6 ± 0.2 nm
same,Z-Potential,[1]; [12],48.3 ± 7.5 mV
same,pH,[1]; [12],3.2
same,PDI,[1]; [13],0.228 ± 0.039
same,Z-Average,[1]; [13],3.8 ± 1.1 nm
same,Z-Potential,[1]; [13],19.1 ± 12.2 mV
same,pH,[1]; [13],3.8
same,PDI,[1]; [14],0.203 ± 0.064
same,Z-Average,[1]; [14],5.3 ± 3.5 nm
same,Z-Potential,[1]; [14],8.70 ± 6.17 mV
same,pH,[1]; [14],3.8
same,PDI,[1]; [15],0.161 ± 0.045
same,Z-Average,[1]; [15],3.1 ± 0.0 nm
same,Z-Potential,[1]; [15],−4.35 ± 1.99 mV
same,pH,[1]; [15],4.1
same,PDI,[1]; [16],0.217 ± 0.009
same,Z-Average,[1]; [16],4.3 ± 1.8 nm
same,Z-Potential,[1]; [16],−0.0299 ± 0.260 mV
same,pH,[1]; [16],4.6
same,PDI,[1]; [17],0.466 ± 0.068
same,Z-Potential,[1]; [17],−22.1 ± 3.37 mV
same,pH,[1]; [17],4.7
same,Z-Average,"[1]; 5.88 mmol/L α-T3DMG, TCA molar ratio 4, ambiguous data (footnote a)",163.7 ± 84.5 ^a nm
same,PDI,[1]; [18],0.490 ± 0.020
same,Z-Average,[1]; [18],307.8 ± 8.6 nm
same,pH,[1]; [18],2.7
same,PDI,[1]; [19],0.336 ± 0.026
same,Z-Average,[1]; [19],6.6 ± 0.1 nm
same,pH,[1]; [19],3.5
same,pH,"[1]; 23.52 mmol/L α-T3DMG, TCA molar ratio 0.9",3.9
same,PDI,"[1]; 23.52 mmol/L α-T3DMG, TCA molar ratio 0.9, ambiguous data (footnote a)",0.286 ± 0.231 ^a
same,Z-Average,"[1]; 23.52 mmol/L α-T3DMG, TCA molar ratio 0.9, ambiguous data due to precipitation (footnote b)",4.2 ± 0.4 ^b nm
same,pH,"[1]; 23.52 mmol/L α-T3DMG, TCA molar ratio 1",3.9
same,PDI,"[1]; 23.52 mmol/L α-T3DMG, TCA molar ratio 1, ambiguous data (footnote a)",0.250 ± 0.179 ^a
same,PDI,[1]; [20],0.190 ± 0.045
same,Z-Average,[1]; [20],9.2 ± 6.1 nm
same,pH,[1]; [20],4.4
same,PDI,[1]; [21],0.219 ± 0.051
same,Z-Average,[1]; [21],22.4 ± 15.1 nm
same,pH,[1]; [21],4.8
same,PDI,[1]; [22],0.217 ± 0.005
same,Z-Average,[1]; [22],23.7 ± 12.2 nm
same,pH,[1]; [22],4.8
same,appearance in water,"[10]; absence of TCA, all concentrations (2.94–23.52 mmol/L)",cloudy
same,appearance of mixed solution,[10]; equal molar ratio of TCA versus 23.52 mmol/L α-T3DMG,white precipitation
same,appearance in water,"[10]; presence of TCA, except 23.52 mmol/L α-T3DMG at α-T3DMG:TCA 1:0.9 and 1:1",transparent
"CNCC(=O)Oc1c(C)c(C)c2c(c1C)CC[C@@](C)(CC/C=C(\C)CC/C=C(\C)CCC=C(C)C)O2 [α-T3MG, 2R-α-Tocotrienyl N-methylglycinate]",Km,[3],1460 µM
same,Vmax,[3],5.573e-07 mol/L/min
same,Km,[4],176 µM
same,Vmax,[4],2.051e-06 mol/L/min
same,solubility at 3 h,[5],> 50000 µM
same,hydrolysis in the presence of eserine,[9],completely inhibited
"CC(C)=CCC/C(C)=C/CC/C(C)=C/CC[C@]1(C)CCc2c(C)c(OC(=O)CCC(=O)O)c(C)c(C)c2O1 [α-T3Suc, 2R-α-Tocotrienyl acid succinate]",Km,[3],1290 µM
same,Vmax,[3],1.033e-07 mol/L/min
same,Km,[4],61.6 µM
same,Vmax,[4],7.426e-08 mol/L/min
